Test results taken from US8501778B2, “Aralkyl piperidine derivatives and their uses as antalgic or ataractic agent” (priority 2008, dated 2013).
Counter-ions that a name gives are not always drawn. Like-named read-outs stand apart in the source and are kept apart here. Marks after values point to notes of the source that are not given here.

What was measured:
[1] = system: Kunming mice; assay: Acetic Acid Twisting Method in mice (antalgic effect); assay type: in vivo; conditions: for inhibition in vivo at 20 mg/kg / inhibition in vivo at 10 mg/kg / inhibition in vivo at 40 mg/kg: Mus musculus; for antalgic: single dosage 20 mg/kg, acetic acid twisting, unit not given (method: inhibiting rate %)
[2] = system: Kunming mice; assay: Hot Plate Method in mice (antalgic effect); assay type: in vivo
[3] = system: Kunming mice; assay: Sedative effect: spontaneous activity of the mice recorded with AC power tube; assay type: in vivo; conditions: single dosage 20 mg/kg, unit not given
Procedure: Kunming mice, clean class KM, purchased from Shanghai SLAC LABORATORY ANIMAL CO. LTD, breeding at general environment.
The compounds are formulated to solutions of 4 mg/ml, 2 mg/ml, and 1 mg/ml with water for injection. Animals in the control group and treatment group are all administered through subcutaneous injection at neck.
First of all, the mice in the treatment group are administrated with a solution of tested compounds (10 mg/kg, 20 mg/kg, 40 mg/kg) through subcutaneous injection at neck, the negative control group is administrated with physiological saline (20 ml/kg) orally, and the positive control group is administrated with Aspirin (20 ml/kg) orally. Each group is administrated with 10 ml/kg of 0.7% acetic acid via intraperitoneal injection (i.p.) after one hour. After 5 minutes, times of twisting response of each group of mice is recorded in 15 minutes, and twisting response inhibiting rate of each of the treatment groups is calculated according to the following equation: Inhibiting rate %=(average twisting times of negative control group−average twisting times of treated group)/average twisting times of negative control group×100% 6. A Sedative Effect is Evaluated by Using AC Power Tube to Record Spontaneous Activity of the Mice. 7. Testing the Antalgic and Sedative Effect of the Compounds with Single Dosage (20 mg/kg), See Table 2 for Details.

[4] = system: mice; conditions: mouse, in vivo
[5] = system: S. typhimurium TA97, TA98, TA100 and TA102; assay: Bacterial Reverse-Mutation Assay (Ames TS); assay type: cell-based
Description: Strains: S. typhimurium TA97, TA98, TA100 and TA102.
Results: The assay included two parts: without S9 and with S9.

[6] = system: mice; conditions: daily for eight days; III-15 60 mg/kg oral gavage, Morphine 10 mg/kg PO; Hot Plate 15 minutes after each administration
[7] = system: mice; assay: Jump test in mice (physical dependence, naloxone precipitated); conditions: III-15 seven times in two days, 20-120 mg/kg PO, naloxone 2 mg/kg i.v. three hours after last dosing
[8] = Animal model studies, summary (oral absorption, therapeutic index); conditions: summary statement
[9] = system: mice; assay: Conditioned Place Preference test in mice (psychological dependence); conditions: III-15 60 mg/kg oral gavage each day for six consecutive days
[10] = sc, 10 mg/kg, subcutaneous injection at neck, mice, read-out: twisting response inhibiting rate (%)
[11] = sc, 20 mg/kg, subcutaneous injection at neck, mice, read-out: twisting response inhibiting rate (%)
[12] = sc, 40 mg/kg, subcutaneous injection at neck, mice, read-out: twisting response inhibiting rate (%)
[13] = Mus musculus, sc, 10 mg/kg, subcutaneous injection at neck, 1 hour after dosing, hot plate 55.5° C., read-out: Increasing rate of pain threshold (%)
[14] = Mus musculus, sc, 20 mg/kg, subcutaneous injection at neck, 1 hour after dosing, hot plate 55.5° C., read-out: Increasing rate of pain threshold (%)
[15] = Mus musculus, sc, 40 mg/kg, subcutaneous injection at neck, 1 hour after dosing, hot plate 55.5° C., read-out: Increasing rate of pain threshold (%)
[16] = po, 10 mg/kg, gavage administration, mice, read-out: twisting response inhibiting rate (%)
[17] = po, 20 mg/kg, gavage administration, mice, read-out: twisting response inhibiting rate (%)
[18] = po, 40 mg/kg, gavage administration, mice, read-out: twisting response inhibiting rate (%)
[19] = Mus musculus, po, 1 h, 10 mg/kg, gavage administration, hot plate, read-out: Increasing rate of pain threshold (%)
[20] = Mus musculus, po, 1 h, 20 mg/kg, gavage administration, hot plate, read-out: Increasing rate of pain threshold (%)
[21] = sc, read-out: twisting response inhibiting rate (%)

CC(c1ccc(N2CCOCC2)cc1)N1CCC(Cl)(CC(=O)c2ccccc2)CC1 (centres unmarked) [IX-7, N-(1-(4-morpholinophenyl)ethyl)-4-benzoylmethyl-4-chloropiperidine hydrochloride]
inhibition in vivo at 20 mg/kg ([1]; sc, read-out: antalgic): 72% | inhibition in vivo at 10 mg/kg [1, 10]: 66% | inhibition in vivo at 20 mg/kg [1, 11]: 60.3% | inhibition in vivo at 40 mg/kg [1, 12]: 76.4% | change in vivo at 10 mg/kg [2, 13]: 79.5% | change in vivo at 20 mg/kg [2, 14]: 101% | change in vivo at 40 mg/kg [2, 15]: 130%

CC(=O)Nc1ccc(CN2CCC(O)(CC(=O)c3ccccc3)CC2)cc1.Cl [III-6, N-p-acetylaminobenzyl-4-benzoylmethyl-4-piperidinol hydrochloride]
antalgic ([1]; mice): 45 | sedative [3]: 75

O=C(CC1(O)CCN(C(c2ccccc2)c2ccccc2)CC1)c1ccccc1 [III-7, N-diphenylmethyl-4-benzoylmethyl-4-piperidinol hydrochloride]
inhibition in vivo at 10 mg/kg [1, 16]: 25.8% | inhibition in vivo at 20 mg/kg [1, 17]: 38% | inhibition in vivo at 40 mg/kg [1, 18]: 44.2% | inhibition in vivo at 20 mg/kg ([1]; sc, read-out: antalgic): 45% | change in vivo at 10 mg/kg [2, 19]: 82.8% | change in vivo at 20 mg/kg [2, 20]: 126%

O=C(CC1(O)CCN(Cc2ccc(F)cc2)CC1)c1ccccc1 [III-3, N-p-fluorobenzyl-4-benzoylmethyl-4-piperidinol hydrochloride]
inhibition in vivo at 20 mg/kg ([1]; sc, read-out: antalgic): 76% | inhibition in vivo at 10 mg/kg [1, 10]: 69.4% | inhibition in vivo at 20 mg/kg [1, 11]: 77.2% | inhibition in vivo at 40 mg/kg [1, 12]: 71.5% | change in vivo at 10 mg/kg [2, 13]: 11.9% | change in vivo at 20 mg/kg [2, 14]: 18.5% | change in vivo at 40 mg/kg [2, 15]: 29.4%

COc1ccc(CN2CCC(O)(CC(=O)c3ccccc3)CC2)cc1.Cl [III-15, N-p-methoxybenzyl-4-benzoylmethyl-4-piperidinol hydrochloride]
inhibition in vivo at 20 mg/kg ([1]; sc, read-out: antalgic): 96% | inhibition in vivo at 10 mg/kg [1, 21]: 55.4% | inhibition in vivo at 20 mg/kg [1, 21]: 94.4% | inhibition in vivo at 40 mg/kg [1, 21]: 100% | change in vivo at 10 mg/kg [2, 13]: 77.7% | change in vivo at 20 mg/kg [2, 14]: 118% | change in vivo at 40 mg/kg [2, 15]: 260% | reversal of the antalgic effect by naloxone [4]: does not reversed by naloxone | Ames test result (revertants) ([5]; TA97, TA98, TA100, TA102, without S9 and with S9, all tested doses): negative | inhibitory effect on bacterial growth ([5]; without S9 TA98 5000 μg/plate and with S9 TA97 5000 μg/plate, no inhibition at all other doses and strains): inhibitory effects on bacterial for the growth were seen | change of pain threshold / antalgic effect on consecutive administration (drug resistance) [6]: does not show weakening | jumping behavior after naloxone (physical dependence) [7]: no jumping behavior is observed | absorption after oral administration [8]: good absorption after oral administration | Conditioned Place Preference (psychological dependence) [9]: do not show Conditioned Place Preference

O=C(CC1(O)CCN(Cc2ccc([N+](=O)[O-])cc2)CC1)c1ccccc1 [III-4, N-p-nitrobenzyl-4-benzoylmethyl-4-piperidinol hydrochloride]
inhibition in vivo at 20 mg/kg ([1]; sc, read-out: antalgic): 100% | inhibition in vivo at 10 mg/kg [1, 21]: 100% | inhibition in vivo at 20 mg/kg [1, 21]: 100% | inhibition in vivo at 40 mg/kg [1, 21]: 100% | change in vivo at 10 mg/kg [2, 13]: 19.8% | change in vivo at 20 mg/kg [2, 14]: 6.47% | change in vivo at 40 mg/kg [2, 15]: 15.9%

CC(=O)Nc1ccc(CN2CCC(O)(CC(O)c3ccccc3)CC2)cc1.Cl (centres unmarked) [Compound V-2, N-p-acetylaminobenzyl-4-(2-hydroxy-2-phenylethyl)-4-piperidinol hydrochloride]
antalgic ([1]; mice): 80 | sedative [3]: 39.6

OC(CC1(O)CCN(C(c2ccccc2)c2ccccc2)CC1)c1ccccc1 (centres unmarked) [Compound V-3, N-diphenylmethyl-4-(2-hydroxy-2-phenylethyl)-4-piperidinol hydrochloride]
inhibition in vivo at 10 mg/kg [1, 16]: 60.6% | inhibition in vivo at 20 mg/kg [1, 17]: 49.8% | inhibition in vivo at 40 mg/kg [1, 18]: 68.1% | inhibition in vivo at 20 mg/kg ([1]; sc, read-out: antalgic): 84% | change in vivo at 10 mg/kg [2, 19]: 64.1% | change in vivo at 20 mg/kg [2, 20]: 86.8% | change in vivo at 40 mg/kg ([2]; Mus musculus, po, 1 h, 40 mg/kg, gavage administration, hot plate, read-out: Increasing rate of pain threshold (%)): 136%

Nc1ccc(CN2CCC(O)(CC(=O)c3ccccc3)CC2)cc1 [III-5, N-p-aminobenzyl-4-benzoylmethyl-4-piperidinol hydrochloride]
inhibition in vivo at 20 mg/kg ([1]; sc, read-out: antalgic): 100% | inhibition in vivo at 10 mg/kg [1, 21]: 100% | inhibition in vivo at 20 mg/kg [1, 21]: 100% | inhibition in vivo at 40 mg/kg [1, 21]: 100% | change in vivo at 10 mg/kg [2, 13]: 58.3% | change in vivo at 20 mg/kg [2, 14]: 75.6% | change in vivo at 40 mg/kg [2, 15]: 190%

COc1ccc(C(C)N2CCC(F)(CC(=O)c3ccccc3)CC2)cc1 (centres unmarked) [IX-1, N-(1-(p-methoxyphenyl)ethyl)-4-benzoylmethyl-4-fluoropiperidine hydrochloride]
inhibition in vivo at 20 mg/kg ([1]; sc, read-out: antalgic): 76% | inhibition in vivo at 10 mg/kg [1, 10]: 60.4% | inhibition in vivo at 20 mg/kg [1, 11]: 68.7% | inhibition in vivo at 40 mg/kg [1, 12]: 81% | change in vivo at 10 mg/kg [2, 13]: 86.4% | change in vivo at 20 mg/kg [2, 14]: 109% | change in vivo at 40 mg/kg [2, 15]: 156%

CN1CC[C@]23c4c5ccc(O)c4O[C@H]2[C@@H](O)C=C[C@H]3[C@H]1C5 [Morphine, reference compound]
change in vivo at 2 mg/kg ([2]; Mus musculus, sc, 1 h, positive control, 2 mg/kg (remark), subcutaneous injection, hot plate, read-out: Increasing rate of pain threshold (%)): 202% | reversal of the antalgic effect by naloxone [4]: is reversed by naloxone | change of pain threshold / antalgic effect on consecutive administration (drug resistance) [6]: reduces gradually starting from the second day of administration | jumping behavior after naloxone (physical dependence) [7]: obvious jumping behavior | Conditioned Place Preference (psychological dependence) [9]: show obvious Conditioned Place Preference

O=C(CC1(O)CCN(Cc2ccccc2)CC1)c1ccccc1 [III-1, N-benzyl-4-benzoylmethyl-4-piperidinol hydrochloride]
inhibition in vivo at 20 mg/kg ([1]; sc, read-out: antalgic): 62% | inhibition in vivo at 10 mg/kg [1, 10]: 73.3% | inhibition in vivo at 20 mg/kg [1, 11]: 59.4% | inhibition in vivo at 40 mg/kg [1, 12]: 91.1% | change in vivo at 10 mg/kg [2, 13]: 99.7% | change in vivo at 20 mg/kg [2, 14]: 89% | change in vivo at 40 mg/kg [2, 15]: 148%

COC1(CC(=O)c2ccccc2)CCN(Cc2ccc(NC(C)=O)cc2)CC1.Cl [VIII-1, N-p-acetylaminobenzyl-4-benzoylmethyl-4-methoxylpiperidine hydrochloride]
twisting response inhibiting rate (%) ([1]; 10 mg/kg, subcutaneous injection at neck, mice): 35.03* % | twisting response inhibiting rate (%) ([1]; 20 mg/kg, subcutaneous injection at neck, mice): 42.11% | twisting response inhibiting rate (%) ([1]; 40 mg/kg, subcutaneous injection at neck, mice): 57.69% | antalgic ([1]; mice): 64 | sedative [3]: 48 | Increasing rate of pain threshold (%) ([2]; 10 mg/kg, subcutaneous injection at neck, 1 hour after dosing, hot plate 55.5° C.): 61.04% | Increasing rate of pain threshold (%) ([2]; 20 mg/kg, subcutaneous injection at neck, 1 hour after dosing, hot plate 55.5° C.): 76.63* % | Increasing rate of pain threshold (%) ([2]; 40 mg/kg, subcutaneous injection at neck, 1 hour after dosing, hot plate 55.5° C.): 105.20* %
